Assay results: patent US20230143751A1, “Aromatic Compound And Use Thereof In Preparing Antineoplastic Drugs” (Shanghai Zheye Biotechnology Co. Ltd., priority 2020, published 2023)

Experiments:
[1] = test system: NCI-H358-derived xenograft tumor; test: Pharmacodynamics study of NCI-H358-derived xenograft tumor model, combination with Afatinib or Trametinib (test 10); type: in vivo, nude mice; settings: i.g. QD×21 days, 3-2 10 mg/kg, Afatinib 10 mg/kg, Trametinib 0.1 mg/kg
Protocol: Animal species and number: Balb/c Nude; 6 animals per group. Test samples: […] Test groups: blank solvent control group; […] NCI-H358 tumor cells in logarithmic growth phase were cultured in vitro and collected, and inoculated subcutaneously into the right back of nude mice at a quantity of 5×10^6 cells/each. When the tumor volume reached 150-300 mm^3, the tumor-bearing nude mice were randomly grouped. Subsequently, the animals in each group were administered, and the day of the first administration was defined as day 1 of the test. Administration frequency: once a day. General state observation: observation time and frequency: once a day; observation indexes or contents: including but not limited to administration location, appearance and signs, general behavioral activities, mental status, death and other abnormal performance of the animals. The animals were euthanized at the end of the test. Tumor volume calculation: V=½×long diameter×short diameter^2 (mm^3).

MIA PaCa-2 cells = test: Cell proliferation activity of MIA PaCa-2 by CellTiter-Glo reagent; type: cell-based; settings: 72 h, CellTiter-Glo; for IC50: Homo sapiens, MIA PaCa-2, read-out: IC50 value of cell proliferation inhibitory activity of the compound on MIA PaCa-2
Protocol: (§1) MIA PaCa-2 cells in exponential growth phase were digested with trypsin-EDTA, plated in a 96-well plate with 2000-3000 cells per well, and incubated overnight at 37° C. with 5% CO2. Mother solutions were prepared from the test compounds by using DMSO, subjected to gradient elution with DMEM growth medium, and then added into the 96-well plate and incubated in an incubator for 72 h at 37° C. with 5% CO2. After the incubation, CellTiter-Glo test reagent with an equal volume was added into each well and the obtained 96-well plate was incubated after shaking. The chemiluminescence values were determined by microplate reader, and the IC50 values of the test compounds inhibiting the proliferation of MIA PaCa-2 cells were fitted and calculated by GraphPad Prism software.
The test method of inhibitory activity was the same as that in Test 2 in “Biological Tests” part.

NCI-H358 cells = test: Cell proliferation activity of NCI-H358 by CellTiter-Glo reagent; type: cell-based; settings: for IC50: Homo sapiens, NCI-H358, test 8, method of test 3, read-out: IC50 of proliferation inhibitory activity of the compound on NCI-H358 cell line
Protocol: as §1, with “NCI-H358” for “MIA PaCa-2”, “Mother solutions were prepared from the test compounds by using DMSO, subjected to gradient elution with DMEM growth medium, and then added into the 96-well plate and incubated in an incubator for 72 h at 37° C. with 5% CO2.” left out
The test method of inhibitory activity was the same as that in Test 3 in “Biological Tests” part.

[2] = Preliminary safety test, 5-day escalating oral dosing in Balb/c mice; type: in vivo; settings: for water and food intake, activity and body weight during the administration period (in words): oral gavage once a day for 5 days, 200 to 800 mg/kg; for MTD at 5 days: both sexes, mouse, in vivo, oral gavage, initially suggested, read-out: maximum tolerated dose
Protocol: Test samples: Compound 3-2, Compound 3-6, Compound 3-12M, Compound 3-20, and Compound 4-8.
Animal species and number: Balb/c; 6 animals per group (half male and half female).
(§2) Administration mode: oral administration by gavage.
Animal grouping and administration dose: vehicle blank group, Compound 3-2 group (200 mg/kg, 400 mg/kg, 800 mg/kg), Compound 3-6 group (200 mg/kg, 400 mg/kg, 800 mg/kg), Compound 3-12M group (200 mg/kg, 400 mg/kg, 800 mg/kg), Compound 3-20 group (200 mg/kg, 400 mg/kg, 800 mg/kg), Compound 4-8 group (200 mg/kg, 400 mg/kg, 800 mg/kg).
Administration frequency: once a day for 5 days.
(§3) General clinical observations were performed 2 times a day (once in the morning and once in the afternoon) during the test period. Death, morbidity, respiration, secretions, feces, and diet, drinking situation and so on were observed, and the changes in body weight of the mice during the administration period were recorded. The animals in each group were euthanized after the administration, and all animals were dissected and subjected to gross observation.

KRAS G12C = KRAS G12C (Homo sapiens, UniProt P01116, G12C); test: Effect on KRAS(G12C) enzyme activity (KRAS G12C/c-Raf binding, Eu/d2 energy transfer); type: biochemical
Protocol: Compound stock solution was taken, and the test compound was subjected to gradient elution in DMSO. The above diluted compound was added into a quantitative volume of enzyme reaction buffer and subjected to oscillation on a microplate oscillator for 20 min.
4 μL of enzyme was transferred to a 384-well reaction plate. 1 μL of the test compound was added into the 384-well reaction plate. The plate was sealed with sealing film, and the reaction plate with the compound was centrifuged at 1000 rpm for 1 min and incubated for 60 min. 5 μL of a mixture of substrate and antibody was transferred to the 384-well reaction plate. The plate was sealed with sealing film, then centrifuged at 1000 rpm for 1 min and incubated for 120 min at room temperature.
Ratiopositive control: average value of the ratios of 10 positive control wells; Rationegative control: average value of the ratios of 10 negative control wells.

NCI-H358 = test: Cell proliferation inhibitory activity on NCI-H358, 3D model test (agarose colony formation); type: cell-based; settings: for anti-cell proliferation activity against KRAS G12C mutant type cells NCI-H358 (in words): 3D model test; for IC50: Homo sapiens, NCI-H358, 3D agarose colony formation, NBT staining
Protocol: 100 μl of agarose gel with a high concentration was spread in a 96-well plate as the bottom agarose gel layer. Agarose with a low concentration and growth medium containing cells were mixed and then spread on the bottom agar layer, cooled and solidified, then incubated overnight at 37° C. Mother solutions were prepared from the test compounds by using DMSO, and then subjected to gradient elution with RPMI 1640 growth medium. The solutions of test compounds with different concentrations after gradient elution were added to the 96-well plate comprising an upper layer of agar gel-cells. Solvent control well was set up and the plate was incubated in a CO2 incubator. The drug-containing medium was changed during the incubation period and the cell growth situation was observed. After the incubation, the cells were stained with NBT and the number of cell colony formation was counted, and the IC50 values of the compounds inhibiting cell proliferation were derived.

[3] = test system: MIA PaCa-2-derived xenograft tumor; test: Pharmacodynamics test of MIA PaCa-2-derived xenograft tumor model in nude mice (test 6); type: in vivo; settings: for inhibition effect on the growth of subcutaneously transplanted tumors derived from pancreatic cancer MIA paca-2 cells in nude mice (in words): 10 mg/kg QD×15 days; for Tumor inhibition rate (%): MIA PaCa-2 xenograft, nude mice, 10 mg/kg oral gavage QD×15 days
Protocol: Animal species and number: Balb/c Nude; 6 animals per group.
Test samples: Compound 3-2, Compound 3-6, Compound 3-20, Compound 3-12M.
Test groups: blank solvent control group; Compound 3-2 (10 mg/kg, QD×15 days), Compound 3-6 (10 mg/kg, QD×15 days), Compound 3-20 (10 mg/kg, QD×15 days), Compound 3-12M (10 mg/kg, QD×15 days).
Animal model establishment: MIA paca-2 tumor cells in logarithmic growth phase were cultured in vitro and collected, and inoculated subcutaneously into the right back of nude mice at a quantity of 5×10^6 cells/each. When the tumor volume reached 150-300 mm^3, the tumor-bearing nude mice were randomly grouped. Subsequently, the animals in each group were administered, and the day of the first administration was defined as day 1 of the test.
Administration route and frequency: oral administration by gavage; once a day.
General state observation: observation time and frequency: once a day; observation indexes or contents: including but not limited to administration location, appearance and signs, general behavioral activities, mental status, death and other abnormal performance of the animals. The animals were euthanized at the end of the test.
Tumor volume calculation: V=½×long diameter×short diameter^2 (mm^3). Tumor growth inhibition rate TGI (%) is used to evaluate the tumor inhibition efficacy of the compounds. TGI (%)=[1−(mean tumor volume in treatment group at the end of administration−mean tumor volume in treatment group at the beginning of administration)/(mean tumor volume in control group at the end of administration−mean tumor volume in control group at the beginning of administration)]×100%.

[4] = Safety test for repeated administration for 14 days in SD rats; type: in vivo; settings: oral gavage once a day for 14 days, 50, 150, 400 mg/kg
Protocol: (§4) Test samples: Compound 3-2, and Compound 3-6.
(§5) Animal species and number: SD rat; 6 animals per group (half male and half female).
as §2
Animal grouping and administration dose: vehicle blank group, Compound 3-2 group (50 mg/kg, 150 mg/kg, 400 mg/kg), Compound 3-6 group (50 mg/kg, 150 mg/kg, 400 mg/kg).
Administration frequency: once a day for 14 days.
as §3, with “the rats” for “the mice”, “The contents of detailed clinical observation included but were not limited to behavioral activity, skin, coat, eyes, ears, nose, abdomen, external genitalia, anus, extremities, feet, and respiration. The” for “The”, “euthanized at” for “euthanized after”, “the end of administration period,” for “the administration,”

[5] = Acute toxicity test, single oral dose in SD rats; type: in vivo; settings: rat, in vivo
Protocol: as §4, §5, §2
Animal grouping and administration dose: vehicle blank group, Compound 3-2 group (500 mg/kg, 1000 mg/kg, 2000 mg/kg), Compound 3-6 group (500 mg/kg, 1000 mg/kg, 2000 mg/kg).
Administration frequency: once.
Death, morbidity, respiration, secretions, feces, and diet, drinking situation and so on were observed, and the changes in body weight of the rats during the administration period were recorded. The contents of detailed clinical observation included but were not limited to behavioral activity, skin, coat, eyes, ears, nose, abdomen, external genitalia, anus, extremities, feet, and respiration. The animals in each group were euthanized at the end of observation period, and all animals were dissected and subjected to gross observation.

Chain of KRAS G12C (P01116 1-188 isoform P01116-2 G12C): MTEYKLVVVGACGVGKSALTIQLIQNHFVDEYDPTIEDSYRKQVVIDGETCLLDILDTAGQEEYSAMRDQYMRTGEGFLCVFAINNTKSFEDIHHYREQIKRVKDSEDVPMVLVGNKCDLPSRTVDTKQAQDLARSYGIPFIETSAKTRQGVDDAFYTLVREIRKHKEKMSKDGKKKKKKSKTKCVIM

Row | SMILES | anti-cell proliferation activity against KRAS G12C mutant type cells MIA PaCa-2 (in words) (MIA PaCa-2 cells) | IC50 (MIA PaCa-2 cells) | water and food intake, activity and body weight during the administration period (in words) [2] | anti-cell proliferation activity against KRAS G12C mutant type cells NCI-H358 (in words) (NCI-H358) | IC50 (NCI-H358) | further results
1 | CC(=O)Nc1cccc(-n2c(=O)n(C3CC3)c(=O)c3c(Nc4ccc(I)cc4F)n(C)c(=O)c(C)c32)c1 [Trametinib] |  |  |  |  |  | Tumor inhibition rate (%) [1]: + (“+” represents a tumor inhibition rate of <130%)
2 | [2H]C([2H])=Cc1cccc(F)c1-c1nc2c(cc1Cl)c(N1CCN(C(=O)C=C)C[C@@H]1C)nc(=O)n2-c1c(C)ccnc1C(C)C [Compound 3-20] | significant anti-cell proliferation activity | < 0.05 µM | no significant abnormality was showed | significant anti-cell proliferation activity | < 0.05 µM | IC50 (NCI-H358 cells): 0.01 µM; cell proliferation inhibitory activity of NCI-H358 compared with AMG510 (in words) (NCI-H358 cells; test 8): better than AMG510; inhibitory activity on KRAS G12C enzyme compared with AMG510 (in words) (KRAS G12C): remarkable better; IC50 (KRAS G12C; 60 min incubation with enzyme, read-out: IC50 value of the compound on KRAS G12C enzyme activity): 0.019 µM; inhibition effect on the growth of subcutaneously transplanted tumors derived from pancreatic cancer MIA paca-2 cells in nude mice (in words) [3]: significant inhibition effect; Tumor inhibition rate (%) [3]: +++ (“+++” represents a tumor inhibition rate of >80%)
3 | [2H]C([2H])=Cc1ccccc1-c1nc2c(cc1Cl)c(N1CCN(C(=O)C=C)C[C@@H]1C)nc(=O)n2-c1c(C([2H])([2H])[2H])ccnc1C(C)C [Compound 4-8] |  | < 0.05 µM | no significant abnormality was showed |  | < 0.05 µM | MTD at 5 days [2]: > 800 mg/kg
4 | [2H]C([2H])=Cc1ccccc1-c1nc2c(cc1Cl)c(N1CCN(C(=O)C=C)C[C@@H]1C)nc(=O)n2-c1c(C(C)C)ccnc1C(C)C [Compound 5-8] |  | < 0.05 µM |  |  | < 0.05 µM | 
5 | CN(C)C/C=C/C(=O)Nc1cc2c(Nc3ccc(F)c(Cl)c3)ncnc2cc1O[C@H]1CCOC1 [Afatinib] |  |  |  |  |  | Tumor inhibition rate (%) [1]: + (“+” represents a tumor inhibition rate of <130%)
6 | C=CC(=O)N1CCN(c2nc(=O)n(-c3c(C)ccnc3C(C)C)c3nc(-c4c(F)cccc4C=C)c(Cl)cc23)[C@@H](C)C1 [Compound 3-6] | significant anti-cell proliferation activity | < 0.05 µM | no significant abnormality was showed | significant anti-cell proliferation activity | < 0.05 µM | water and food intake, activity and body weight during the administration period (in words) [4]: no significant abnormality was showed; IC50 (NCI-H358 cells): 0.011 µM; MTD at 5 days [2]: > 800 mg/kg; MTD ([5]; both sexes, SD rats, single oral gavage, 500, 1000, 2000 mg/kg, read-out: maximum tolerated dose (MTD)): ≥ 2000 mg/kg; death or morbidity after single dose (in words) [5]: No animals in each group were dead or close to death; inhibition effect on the growth of subcutaneously transplanted tumors derived from pancreatic cancer MIA paca-2 cells in nude mice (in words) [3]: significant inhibition effect; Tumor inhibition rate (%) [3]: +++ (“+++” represents a tumor inhibition rate of >80%)
7 | C=CC(=O)N1CCN(c2nc(=O)n(-c3c(C)ccnc3C(C)C)c3nc(-c4ccccc4C=C)c(F)cc23)[C@@H](C)C1 [Compound 3-1] | significant anti-cell proliferation activity | < 0.05 µM |  | significant anti-cell proliferation activity | < 0.05 µM | 
